Test results: US10570122B2, “Compounds with anti-tumoral activity” (AB Science, priority 2015, dated 2020)

Experiments:
[1] = tested on: HL60; assay: CellTiter-Blue cell-based survival/proliferation assay, HL60; conditions: Homo sapiens, HL-60, Leukemia cell line HL60, 48 h, read-out: Anti-tumoral activity (measured IC50) HL60
How it was run: (§1)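 Compounds, diluted tenfold serially over 0–10 μM, are applied to 1·10^4 seeded cells per well for 48 h at 37 °C. Resorufin formed during a further 4 h with CellTiter-Blue is detected by fluorescence emission at 590 nm.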

[2] = tested on: HUT78; assay: CellTiter-Blue cell-based survival/proliferation assay, HUT78; conditions: Homo sapiens, Lymphoma cell line HUT78, 48 h, read-out: Anti-tumoral activity (measured IC50) HUT78
Procedure: (§2) Cell-Based Proliferation Screening of Compounds
(§3) CellTiter-Blue cell-based survival/proliferation assay (Promega G8080) was performed on tumor cell lines. A total of 1·10^4 cells/well/50 μl were seeded in a 96-wells plate. Treatment was initiated by addition of a 2× drug solution of 1/10 serial dilutions ranging from 0 to 10 μM. Cells were grown for 48 h at 37° C. and then incubated with 10 μl/well of Promega CellTiter-Bleue reagent for 4 h at 37° C. The amount of resorufin dye formed was quantified by its fluorescence emission at 590 nm using a scanning multiwell spectrophotometer (OPTIMA, BMG labtech, France). A blank well without cells was used as a background control for the spectrophotometer.

[3] = tested on: KARPAS299; assay: CellTiter-Blue cell-based survival/proliferation assay, KARPAS299; conditions: Homo sapiens, KARPAS-299, Lymphoma cell line KARPAS299, 48 h, read-out: Anti-tumoral activity (measured IC50) KARPAS299
Procedure: as §2, §3

[4] = tested on: REC1; assay: CellTiter-Blue cell-based survival/proliferation assay, REC1; conditions: Homo sapiens, Lymphoma cell line REC1, 48 h, read-out: Anti-tumoral activity (measured IC50) REC1
Procedure: as §2, §3

[5] = tested on: OPM2; assay: CellTiter-Blue cell-based survival/proliferation assay, OPM2; conditions: Homo sapiens, OPM-2, Myeloma cell line OPM2, 48 h, read-out: Anti-tumoral activity (measured IC50) OPM2
How it was run: as §1

[6] = tested on: A498; assay: CellTiter-Blue cell-based survival/proliferation assay, A498; conditions: Homo sapiens; A498 kidney tumor cell line, 48 h
How it was run: as §1

[7] = tested on: A549; assay: CellTiter-Blue cell-based survival/proliferation assay, A549; conditions: Homo sapiens; A549 lung tumor cell line, 48 h
How it was run: as §1

[8] = tested on: ACHN; assay: CellTiter-Blue cell-based survival/proliferation assay, ACHN; conditions: Homo sapiens; ACHN kidney tumor cell line, 48 h
How it was run: as §1

[9] = tested on: AGS; assay: CellTiter-Blue cell-based survival/proliferation assay, AGS; conditions: Homo sapiens; AGS stomach tumor cell line, 48 h
How it was run: as §1

[10] = tested on: BT20; assay: CellTiter-Blue cell-based survival/proliferation assay, BT20; conditions: Homo sapiens, BT-20; BT20 breast tumor cell line, 48 h
How it was run: as §1

[11] = tested on: BXPC3; assay: CellTiter-Blue cell-based survival/proliferation assay, BXPC3; conditions: Homo sapiens, BXPC-3; BXPC3 pancreas tumor cell line, 48 h
How it was run: as §1

[12] = tested on: CALU6; assay: CellTiter-Blue cell-based survival/proliferation assay, CALU6; conditions: Homo sapiens, Calu-6; CALU6 lung tumor cell line, 48 h
How it was run: as §1

[13] = tested on: CLS354; assay: CellTiter-Blue cell-based survival/proliferation assay, CLS354; conditions: Homo sapiens, CLS-354; CLS354_4 head & neck tumor cell line, 48 h
How it was run: as §1

[14] = tested on: DLD1; assay: CellTiter-Blue cell-based survival/proliferation assay, DLD1; conditions: Homo sapiens, DLD-1; DLD_1 colorectal tumor cell line, 48 h
How it was run: as §1

[15] = tested on: DU145; assay: CellTiter-Blue cell-based survival/proliferation assay, DU145; conditions: Homo sapiens, DU-145; DU145 prostate tumor cell line, 48 h
How it was run: as §1

[16] = tested on: H1299; assay: CellTiter-Blue cell-based survival/proliferation assay, H1299; conditions: Homo sapiens, NCI-H1299; H1299 lung tumor cell line, 48 h
How it was run: as §1

[17] = tested on: HCT116; assay: CellTiter-Blue cell-based survival/proliferation assay, HCT116; conditions: Homo sapiens, HCT-116; HCT116 colorectal tumor cell line, 48 h
How it was run: as §1

[18] = tested on: HEP2; assay: CellTiter-Blue cell-based survival/proliferation assay, HEP2; conditions: Homo sapiens, HEp-2; HEP2 head & neck tumor cell line, 48 h
How it was run: as §1

[19] = tested on: HEPG2; assay: CellTiter-Blue cell-based survival/proliferation assay, HEPG2; conditions: Homo sapiens; HEPG2 liver tumor cell line, 48 h
How it was run: as §1

[20] = tested on: HGC27; assay: CellTiter-Blue cell-based survival/proliferation assay, HGC27; conditions: Homo sapiens, HGC-27; HGC27 stomach tumor cell line, 48 h
How it was run: as §1

[21] = tested on: MDAMB231; assay: CellTiter-Blue cell-based survival/proliferation assay, MDAMB231; conditions: Homo sapiens, MDA-MB-231; MDAMB231 breast tumor cell line, 48 h
How it was run: as §1

[22] = tested on: MESSA; assay: CellTiter-Blue cell-based survival/proliferation assay, MESSA; conditions: Homo sapiens, MES-SA; MESSA ovary tumor cell line, 48 h
How it was run: as §1

[23] = tested on: PANC1; assay: CellTiter-Blue cell-based survival/proliferation assay, PANC1; conditions: Homo sapiens, PANC-1; PANC_1 pancreas tumor cell line, 48 h
How it was run: as §1

[24] = tested on: PC3; assay: CellTiter-Blue cell-based survival/proliferation assay, PC3; conditions: Homo sapiens, PC-3; PC3 prostate tumor cell line, 48 h
How it was run: as §1

[25] = tested on: PLCPRF5; assay: CellTiter-Blue cell-based survival/proliferation assay, PLCPRF5; conditions: Homo sapiens, PLC-PRF-5; PLC_PRF5 liver tumor cell line, 48 h
How it was run: as §1

[26] = tested on: SW579; assay: CellTiter-Blue cell-based survival/proliferation assay, SW579; conditions: Homo sapiens; SW579 head & neck tumor cell line, 48 h
How it was run: as §1

[27] = tested on: TOV112D; assay: CellTiter-Blue cell-based survival/proliferation assay, TOV112D; conditions: Homo sapiens; TOV112D ovary tumor cell line, 48 h
How it was run: as §1

[28] = tested on: panel of about 34 human tumor cell lines; assay: Cell-based proliferation screening on panel of tumor cell lines; conditions: solid tumor cell line, cell line unknown, 48 h, read-out: IC50, solid tumor cell line of column 6 (last section of Table 3)
How it was run: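 CellTiter-Blue survival assay with 1·10^4 cells/well, each line treated 48 h at 37° C with 1/10 serial dilutions from 0 to 10 μM. Resorufin formed during a 4 h reagent incubation is read by fluorescence at 590 nm. A cell-free blank serves as background.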

Row | SMILES | IC50 [1] | IC50 [2] | IC50 [3] | IC50 [4] | IC50 [5] | IC50 [6] | IC50 [7] | IC50 [8] | IC50 [9] | IC50 [10] | IC50 [11] | IC50 [12] | IC50 [13] | IC50 [14] | IC50 [15] | IC50 [16] | IC50 [17] | IC50 [18] | IC50 [19] | IC50 [20] | also measured
1 | Cc1ccc(CO)cc1Nc1ncc(-c2ccc(-n3cccn3)cc2)o1 [Example 027, {4-Methyl-3-[5-(4-pyrazol-1-yl-phenyl)-oxazol-2-ylamino]-phenyl}-methanol] | > 1000 nM | > 1000 nM | > 1000 nM | > 1000 nM | > 1000 nM | > 1000 nM | > 1000 nM | > 1000 nM | > 1000 nM | > 1000 nM | > 1000 nM | > 1000 nM | > 1000 nM | > 1000 nM | > 1000 nM | > 1000 nM | > 1000 nM | > 1000 nM | > 1000 nM | > 1000 nM | IC50 [21]: > 1000 nM; IC50 [22]: > 1000 nM; IC50 [23]: > 1000 nM; IC50 [24]: > 1000 nM; IC50 [25]: > 1000 nM; IC50 [26]: > 1000 nM; IC50 [27]: > 1000 nM; IC50 [28]: > 1000 nM
2 | Cc1ccc(OCCN2CCOCC2)cc1Nc1ncc(-c2ccc(-n3cccn3)cc2)o1 [Example 029, [2-Methyl-5-(2-morpholin-4-yl-ethoxy)-phenyl]-[5-(4-pyrazol-1-yl-phenyl)-oxazol-2-yl]-amine] | > 1000 nM | > 1000 nM | > 1000 nM | > 1000 nM | > 1000 nM | > 1000 nM | > 1000 nM | > 1000 nM | > 1000 nM | > 1000 nM | > 1000 nM | > 1000 nM | > 1000 nM | > 1000 nM | > 1000 nM | > 1000 nM | > 1000 nM | > 1000 nM | > 1000 nM | > 1000 nM | IC50 [21]: > 1000 nM; IC50 [22]: > 1000 nM; IC50 [23]: > 1000 nM; IC50 [24]: > 1000 nM; IC50 [25]: > 1000 nM; IC50 [26]: > 1000 nM; IC50 [27]: > 1000 nM; IC50 [28]: > 1000 nM
3 | Cc1ccc(OCCN(C)C)cc1Nc1ncc(-c2ccc(-n3cccn3)cc2)o1 [Example 030, [5-(2-Dimethylamino-ethoxy)-2-methyl-phenyl]-[5-(4-pyrazol-1-yl-phenyl)-oxazol-2-yl]-amine] | > 1000 nM | > 1000 nM | > 1000 nM | > 1000 nM | > 1000 nM | > 1000 nM | > 1000 nM | > 1000 nM | > 1000 nM | > 1000 nM | > 1000 nM | > 1000 nM | > 1000 nM | > 1000 nM | > 1000 nM | > 1000 nM | > 1000 nM | > 1000 nM | > 1000 nM | > 1000 nM | IC50 [21]: > 1000 nM; IC50 [22]: > 1000 nM; IC50 [23]: > 1000 nM; IC50 [24]: > 1000 nM; IC50 [25]: > 1000 nM; IC50 [26]: > 1000 nM; IC50 [27]: > 1000 nM; IC50 [28]: > 1000 nM
4 | CNC(=O)c1ccc(C)c(Nc2ncc(-c3ccc(-n4cccn4)cc3)o2)c1 [Example 031, 4,N-Dimethyl-3-[5-(4-pyrazol-1-yl-phenyl)-oxazol-2-ylamino]-benzamide] | > 1000 nM | > 1000 nM | 100 to 500 nM | > 1000 nM | > 1000 nM | > 1000 nM | > 1000 nM | > 1000 nM | > 1000 nM | > 1000 nM | > 1000 nM | > 1000 nM | > 1000 nM | > 1000 nM | > 1000 nM | > 1000 nM | > 1000 nM | > 1000 nM | > 1000 nM | > 1000 nM | IC50 [21]: > 1000 nM; IC50 [22]: > 1000 nM; IC50 [23]: > 1000 nM; IC50 [24]: > 1000 nM; IC50 [25]: > 1000 nM; IC50 [26]: > 1000 nM; IC50 [27]: > 1000 nM; IC50 [28]: > 1000 nM
5 | Cc1ccc(C(=O)NCCN2CCN(C)CC2)cc1Nc1ncc(-c2ccc(-n3cccn3)cc2)o1 [Example 032, 4-Methyl-N-[2-(4-methyl-piperazin-1-yl)-ethyl]-3-[5-(4-pyrazol-1-yl-phenyl)-oxazol-2-ylamino]-benzamide] | > 1000 nM | > 1000 nM | > 1000 nM | > 1000 nM | > 1000 nM | > 1000 nM | > 1000 nM | > 1000 nM | > 1000 nM | > 1000 nM | > 1000 nM | > 1000 nM | > 1000 nM | > 1000 nM | > 1000 nM | > 1000 nM | > 1000 nM | > 1000 nM | > 1000 nM | > 1000 nM | IC50 [21]: > 1000 nM; IC50 [22]: > 1000 nM; IC50 [23]: > 1000 nM; IC50 [24]: > 1000 nM; IC50 [25]: > 1000 nM; IC50 [26]: > 1000 nM; IC50 [27]: > 1000 nM; IC50 [28]: > 1000 nM
